Earlier results on one compound are cited in patent US9504662B2, “Composition for skin improvement comprising hexamidines and retinoids” (AMOREPACIFIC CORPORATION, priority 2009, dated 2016).

Molecules are shown by their SMILES.

For this series the following is noted: 4 μM of retinol vs 100 nM of Isotretinoin; general statement, no method given.

In the case of `CC1=C(/C=C/C(C)=C/C=C/C(C)=C/CO)C(C)(C)CCC1` [retinol], the sebum-inhibiting effect result is recorded as “substantially has the same degree of sebum-inhibiting effect as 100 nM of Isotretinoin”.
